Patent publication US10030020B2, “Spirocycle compounds and methods of making and using same” (Abide Therapeutics, Inc., priority 2016, dated 2018)

Columns and labels:
ABHD6 [1] = biological target: T1, ABHD6 (Mus musculus (Mouse), UniProt Q8R2Y0); assay: In vitro competitive activity-based protein profiling (mouse brain membrane fraction or cell lysates), ABHD6 band; type: biochemical; conditions: mouse proteome; for inhibition at 1 µM: read-out: ABHD6 % Inh 1 μM (mouse); for IC50: competitive ABPP
Summary of the method: (§1)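 Mouse proteome samples (brain membrane fraction or cell lysate, 1.0 mg/mL protein) were pretreated with varying inhibitor concentrations and subsequently probed with fluorophosphonate-rhodamine, each step lasting 30 min at 37° C. Labelled proteins were separated by SDS-PAGE, and band fluorescence was imaged and quantified.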

MAGL [2] = biological target: T2, MAGL (Mus musculus (Mouse), UniProt O35678); assay: In vitro competitive activity-based protein profiling (mouse brain membrane fraction or cell lysates), MAGL band; type: biochemical; conditions: mouse proteome; for inhibition at 1 µM: read-out: MAGL % Inh 1 μM (mouse); for IC50: competitive ABPP
Method: In Vitro Competitive Activity-Based Protein Profiling.
Proteomes (mouse brain membrane fraction or cell lysates) (50 μL, 1.0 mg/mL total protein concentration) were preincubated with varying concentrations of inhibitors at 37° C. After 30 min, FP—Rh (1.0 μL, 50 μM in DMSO) was added and the mixture was incubated for another 30 min at 37° C. Reactions were quenched with SDS loading buffer (50 μL-4×) and run on SDS-PAGE.

FAAH [3] = biological target: T3, FAAH (Mus musculus (Mouse), UniProt O08914); assay: Mouse brain proteomes from inhibitor treated mice (oral gavage, sacrificed 4 h after administration, ABPP analysis), FAAH; type: in vivo, mouse (C57Bl/6J); conditions: 5 mg/kg oral gavage
Summary of the method: (§2)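 Percent inhibition in brain tissue measured by ABPP 4 h after a single oral gavage dose (5 mg/kg) to wild-type C57Bl/6J mice; vehicle was, for example, PEG400/Ethanol/PBS at 7/2/1.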

ABHD6 [4] = biological target: T1, ABHD6; assay: Mouse brain proteomes from inhibitor treated mice (oral gavage, sacrificed 4 h after administration, ABPP analysis), ABHD6; type: in vivo, mouse (C57Bl/6J); conditions: 5 mg/kg oral gavage
Summary of the method: as §2

MAGL [5] = biological target: T2, MAGL; assay: Mouse brain proteomes from inhibitor treated mice (oral gavage, sacrificed 4 h after administration, ABPP analysis); type: in vivo, mouse (C57Bl/6J); conditions: 5 mg/kg oral gavage
Summary of the method: as §2

FAAH [6] = biological target: T3, FAAH; assay: In vitro competitive activity-based protein profiling (mouse brain membrane fraction or cell lysates), FAAH band; type: biochemical; conditions: mouse proteome; for inhibition at 1 µM: read-out: FAAH % Inh 1 μM (mouse); for IC50: competitive ABPP
Summary of the method: as §1

T2 sequence (O35678 whole entry): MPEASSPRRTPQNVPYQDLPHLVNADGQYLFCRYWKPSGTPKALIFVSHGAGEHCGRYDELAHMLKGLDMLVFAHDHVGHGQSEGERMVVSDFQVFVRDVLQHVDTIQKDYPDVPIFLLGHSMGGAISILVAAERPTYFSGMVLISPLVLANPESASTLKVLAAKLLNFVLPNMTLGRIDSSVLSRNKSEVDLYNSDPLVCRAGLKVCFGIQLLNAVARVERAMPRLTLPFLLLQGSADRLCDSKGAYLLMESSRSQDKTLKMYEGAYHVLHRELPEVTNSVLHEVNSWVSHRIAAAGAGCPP
T1 sequence (Q8R2Y0 whole entry): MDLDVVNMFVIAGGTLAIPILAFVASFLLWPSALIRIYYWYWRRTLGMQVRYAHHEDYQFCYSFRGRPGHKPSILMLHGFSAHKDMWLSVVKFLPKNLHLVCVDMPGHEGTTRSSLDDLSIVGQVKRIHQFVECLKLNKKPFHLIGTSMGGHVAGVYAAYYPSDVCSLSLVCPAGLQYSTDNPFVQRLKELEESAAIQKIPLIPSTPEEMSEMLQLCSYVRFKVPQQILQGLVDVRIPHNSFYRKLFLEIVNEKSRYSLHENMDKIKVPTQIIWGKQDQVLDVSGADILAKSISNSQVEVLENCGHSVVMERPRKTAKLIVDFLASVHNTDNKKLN
T3 sequence (O08914 whole entry): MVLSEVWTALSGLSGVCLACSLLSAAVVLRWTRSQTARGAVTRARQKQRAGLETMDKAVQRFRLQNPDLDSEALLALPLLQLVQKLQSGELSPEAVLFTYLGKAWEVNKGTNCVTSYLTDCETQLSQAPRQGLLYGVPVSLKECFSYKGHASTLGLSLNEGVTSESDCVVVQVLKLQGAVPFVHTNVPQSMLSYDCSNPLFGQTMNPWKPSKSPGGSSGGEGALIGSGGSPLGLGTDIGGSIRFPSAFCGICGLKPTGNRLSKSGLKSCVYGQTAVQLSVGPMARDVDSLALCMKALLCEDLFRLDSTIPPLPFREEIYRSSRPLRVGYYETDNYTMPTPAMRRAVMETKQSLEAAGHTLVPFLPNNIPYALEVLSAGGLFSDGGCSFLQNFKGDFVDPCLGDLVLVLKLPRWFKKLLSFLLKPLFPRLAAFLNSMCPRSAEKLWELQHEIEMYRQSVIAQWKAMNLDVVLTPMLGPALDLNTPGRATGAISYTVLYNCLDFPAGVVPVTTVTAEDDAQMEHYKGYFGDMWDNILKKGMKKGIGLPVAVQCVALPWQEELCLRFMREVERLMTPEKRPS

SMILES | inhibition at 1 µM (ABHD6 [1]) [%] | IC50 (ABHD6 [1]) [nM] | inhibition at 1 µM (MAGL [2]) [%] | IC50 (MAGL [2]) [nM] | FAAH % Inh 5 mg/kg (mouse) (FAAH [3]) | ABHD6 % Inh 5 mg/kg (mouse) (ABHD6 [4]) | MAGL % Inh 5 mg/kg (mouse) (MAGL [5]) | inhibition at 1 µM (FAAH [6]) [%] | IC50 (FAAH [6]) [nM]
O=C(OC(C(F)(F)F)C(F)(F)F)N1CCC2(CCCN2Cc2ccc(N3CCOCC3)c(C(F)(F)F)c2)CC1 [Example 129, 1,1,1,3,3,3-Hexafluoropropan-2-yl 1-(4-morpholino-3-(trifluoromethyl)benzyl)-1,8-diazaspiro[4.5]decane-8-carboxylate] | 25 to 75 | > 1000 | > 75 | < 100 | # (# is <25%) | # (# is <25%) | ### (### is ≥75%) | < 25 | > 1000
O=C(OC(C(F)(F)F)C(F)(F)F)N1CCC2(CCCN2Cc2ccc(N3CCCC3)c(C(F)(F)F)c2)CC1 [Example 130, 1,1,1,3,3,3-Hexafluoropropan-2-yl 1-(4-(pyrrolidin-1-yl)-3-(trifluoromethyl)benzyl)-1,8-diazaspiro[4.5]decane-8-carboxylate] | 25 to 75 | > 1000 | > 75 | < 100 | # (# is <25%) | # (# is <25%) | ### (### is ≥75%) | < 25 | > 1000
O=C(OC(C(F)(F)F)C(F)(F)F)N1CCC2(CCCN2Cc2ccc(Cl)c(N3CCCC3)c2)CC1 [Example 132, 1,1,1,3,3,3-Hexafluoropropan-2-yl 1-(4-chloro-3-(pyrrolidin-1-yl)benzyl)-1,8-diazaspiro[4.5]decane-8-carboxylate] | < 25 | > 1000 | > 75 | < 100 | # (# is <25%) | # (# is <25%) | ### (### is ≥75%) | < 25 | > 1000
CS(=O)(=O)N1CCc2cccc(CN3CCCC34CCN(C(=O)OC(C(F)(F)F)C(F)(F)F)CC4)c2C1 [Example 146, 1,1,1,3,3,3-Hexafluoropropan-2-yl 1-((2-methanesulfonyl-1,2,3,4-tetrahydroisoquinolin-8-yl)methyl)-1,8-diazaspiro[4.5]decane-8-carboxylate] | 25 to 75 | > 1000 | > 75 | < 100 | # (# is <25%) | ## (## is equal to or greater than 25% but less than 75%) | ### (### is ≥75%) | < 25 | > 1000
CCc1cc(CN2CCCC23CCN(C(=O)OC(C(F)(F)F)C(F)(F)F)CC3)ccc1F [Example 150, 1,1,1,3,3,3-Hexafluoropropan-2-yl 1-(3-ethyl-4-fluorobenzyl)-1,8-diazaspiro[4.5]decane-8-carboxylate] | < 25 | > 1000 | > 75 | < 100 | # (# is <25%) | # (# is <25%) | ### (### is ≥75%) | < 25 | > 1000
O=C(OC(C(F)(F)F)C(F)(F)F)N1CCC2(CCCN2Cc2ccc3c(c2)COC3)CC1 [Example 151, 1,1,1,3,3,3-Hexafluoropropan-2-yl 1-((1,3-dihydroisobenzofuran-5-yl)methyl)-1,8-diazaspiro[4.5]decane-8-carboxylate] | < 25 | > 1000 | > 75 | < 100 | ## (## is equal to or greater than 25% but less than 75%) | ## (## is equal to or greater than 25% but less than 75%) | ### (### is ≥75%) | < 25 | > 1000
O=C(OC(C(F)(F)F)C(F)(F)F)N1CCC2(CCN(Cc3ccc(C(F)(F)F)c(N4CCCC4)c3)C2)CC1 [Example 157, 1,1,1,3,3,3-Hexafluoropropan-2-yl 2-(3-(pyrrolidin-1-yl)-4-(trifluoromethyl)benzyl)-2,8-diazaspiro[4.5]decane-8-carboxylate] | ≥ 75 | 100 to 1000 | > 75 | < 100 | # (# is <25%) | ## (## is equal to or greater than 25% but less than 75%) | ### (### is ≥75%) | < 25 | > 1000
CN1CCC(Oc2cc(CN3CCCC34CCN(C(=O)OC(C(F)(F)F)C(F)(F)F)CC4)cc(C(F)(F)F)c2)CC1 [Example 166, 1,1,1,3,3,3-Hexafluoropropan-2-yl 1-(3-(1-methylpiperidin-4-yloxy)-5-(trifluoromethyl)benzyl)-1,8-diazaspiro[4.5]decane-8-carboxylate] | < 25 | > 1000 | > 75 | < 100 | # (# is <25%) | # (# is <25%) | # (# is <25%) | < 25 | > 1000
O=C(COc1cc(CN2CCCC23CCN(C(=O)OC(C(F)(F)F)C(F)(F)F)CC3)cc(C(F)(F)F)c1)N1CCCC1 [Example 168, 1,1,1,3,3,3-Hexafluoropropan-2-yl 1-(3-(2-oxo-2-(pyrrolidin-1-yl)ethoxy)-5-(trifluoromethyl)benzyl)-1,8-diazaspiro[4.5]decane-8-carboxylate] | < 25 | > 1000 | > 75 | < 100 | # (# is <25%) | # (# is <25%) | ## (## is equal to or greater than 25% but less than 75%) | < 25 | > 1000

Now from value to compound:

inhibition at 1 µM (ABHD6 [1]) [%] | IC50 (ABHD6 [1]) [nM] | inhibition at 1 µM (MAGL [2]) [%] | IC50 (MAGL [2]) [nM] | FAAH % Inh 5 mg/kg (mouse) (FAAH [3]) | ABHD6 % Inh 5 mg/kg (mouse) (ABHD6 [4]) | MAGL % Inh 5 mg/kg (mouse) (MAGL [5]) | inhibition at 1 µM (FAAH [6]) [%] | IC50 (FAAH [6]) [nM] | SMILES
< 25 | > 1000 | > 75 | < 100 | # (# is <25%) | # (# is <25%) | ### (### is ≥75%) | < 25 | > 1000 | O=C(OC(C(F)(F)F)C(F)(F)F)N1CCC2(CCCN2Cc2ccc(Cl)cc2N2CC3COCC3C2)CC1 (stereo not drawn) [Example 108, 1,1,1,3,3,3-Hexafluoropropan-2-yl 1-(4-chloro-2-(tetrahydro-1H-furo[3,4-c]pyrrol-5(3H)-yl)benzyl)-1,8-diazaspiro[4.5]decane-8-carboxylate]
< 25 | > 1000 | > 75 | < 100 | # (# is <25%) | # (# is <25%) | ### (### is ≥75%) | < 25 | > 1000 | Cc1cc(CN2CCCC23CCN(C(=O)OC(C(F)(F)F)C(F)(F)F)CC3)ccc1Cl [Example 124, 1,1,1,3,3,3-Hexafluoropropan-2-yl 1-(4-chloro-3-methylbenzyl)-1,8-diazaspiro[4.5]decane-8-carboxylate]
< 25 | > 1000 | > 75 | < 100 | # (# is <25%) | # (# is <25%) | ### (### is ≥75%) | < 25 | > 1000 | Cc1ccc(CN2CCCC23CCN(C(=O)OC(C(F)(F)F)C(F)(F)F)CC3)cc1Cl [Example 125, 1,1,1,3,3,3-Hexafluoropropan-2-yl 1-(3-chloro-4-methylbenzyl)-1,8-diazaspiro[4.5]decane-8-carboxylate]
< 25 | > 1000 | > 75 | < 100 | # (# is <25%) | # (# is <25%) | ### (### is ≥75%) | < 25 | > 1000 | O=C(OC(C(F)(F)F)C(F)(F)F)N1CCC2(CCCN2Cc2ccc(N3CCCC3)c(Cl)c2)CC1 [Example 128, 1,1,1,3,3,3-Hexafluoropropan-2-yl 1-(3-chloro-4-(pyrrolidin-1-yl)benzyl)-1,8-diazaspiro[4.5]decane-8-carboxylate]
≥ 75 | 100 to 1000 | > 75 | < 100 | # (# is <25%) | ### (### is ≥75%) | ### (### is ≥75%) | < 25 | > 1000 | CCc1cc(CN2CCC3(CCN(C(=O)OC(C(F)(F)F)C(F)(F)F)CC3)C2)ccc1F [Example 152, 1,1,1,3,3,3-Hexafluoropropan-2-yl 2-(3-ethyl-4-fluorobenzyl)-2,8-diazaspiro[4.5]decane-8-carboxylate]
